Experiments:
[1] = target: T1, Peroxisome proliferator-activated receptor alpha (Homo sapiens, UniProt Q07869); assay: Binding affinity towards human […] proliferator activated receptor alpha (hPPARalpha)
T1 sequence (Q07869 whole entry): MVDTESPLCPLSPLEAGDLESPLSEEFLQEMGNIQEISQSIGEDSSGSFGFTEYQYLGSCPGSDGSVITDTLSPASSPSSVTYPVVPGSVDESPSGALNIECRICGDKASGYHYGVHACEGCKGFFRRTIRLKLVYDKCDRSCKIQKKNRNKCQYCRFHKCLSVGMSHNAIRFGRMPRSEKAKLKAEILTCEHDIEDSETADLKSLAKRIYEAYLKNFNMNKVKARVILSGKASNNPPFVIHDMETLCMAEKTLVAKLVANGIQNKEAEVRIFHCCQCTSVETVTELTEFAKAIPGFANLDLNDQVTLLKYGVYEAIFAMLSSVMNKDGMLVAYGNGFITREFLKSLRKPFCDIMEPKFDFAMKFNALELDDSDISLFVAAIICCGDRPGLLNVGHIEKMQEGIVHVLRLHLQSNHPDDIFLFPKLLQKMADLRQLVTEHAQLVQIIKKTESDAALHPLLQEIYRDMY

[2] = target: T1, Peroxisome proliferator-activated receptor alpha; assay: (§1) Binding affinity at human PPAR alpha
[3] = target: T2, Peroxisome proliferator-activated receptor gamma (Homo sapiens, UniProt P37231)
T2 sequence (P37231 whole entry): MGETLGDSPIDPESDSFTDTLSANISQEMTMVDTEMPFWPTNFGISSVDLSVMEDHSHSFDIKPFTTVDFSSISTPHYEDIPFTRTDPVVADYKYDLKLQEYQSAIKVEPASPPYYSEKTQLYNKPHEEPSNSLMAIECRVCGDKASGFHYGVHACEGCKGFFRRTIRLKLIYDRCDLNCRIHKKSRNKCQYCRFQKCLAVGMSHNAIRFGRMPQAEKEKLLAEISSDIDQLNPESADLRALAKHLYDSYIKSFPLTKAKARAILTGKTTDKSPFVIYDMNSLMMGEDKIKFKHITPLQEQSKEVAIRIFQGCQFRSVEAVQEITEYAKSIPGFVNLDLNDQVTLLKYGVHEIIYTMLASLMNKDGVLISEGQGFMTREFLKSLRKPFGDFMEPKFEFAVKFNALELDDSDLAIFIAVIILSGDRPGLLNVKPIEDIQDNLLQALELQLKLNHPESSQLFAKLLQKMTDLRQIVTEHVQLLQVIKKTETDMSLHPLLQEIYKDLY
Description: Binding affinity at human peroxidase proliferator activated receptor gamma (hPPARgamma)

[4] = target: T2, Peroxisome proliferator-activated receptor gamma; remark: listed apart in the source
[5] = target: T3, Peroxisome proliferator-activated receptor gamma (Homo sapiens) (UniProt P37231); assay: Binding affinity at human PPAR gamma
T3 sequence (whole entry): T2 sequence (P37231 whole entry)

[6] = target: T4, Peroxisome proliferator-activated receptor alpha (Homo sapiens) (UniProt Q07869); assay: as §1
T4 sequence (whole entry): T1 sequence (Q07869 whole entry)

[7] = target: T2, Peroxisome proliferator-activated receptor gamma; assay: Binding affinity at human […] proliferator activated receptor gamma (hPPARgamma); No binding
[8] = target: T1, Peroxisome proliferator-activated receptor alpha; assay: Binding affinity towards human […] proliferator activated receptor alpha (hPPARalpha); No binding

Row | SMILES | IC50 [1] [nM] | EC50 [2] [nM] | IC50 [3] [µM] | EC50 [4] [nM] | Efficacy [5] [%] | Efficacy [6] [%] | IC50 [7] | IC50 [8]
1 | Cc1oc(-c2ccc(Br)cc2)nc1CCOc1ccc(OC(C)(C)C(=O)O)cc1 | 242 | 61.9 | 4.56 | 1720 |  |  |  | 
2 | Cc1oc(-c2ccccc2)nc1CCOc1ccc(OCC(=O)O)cc1 | 10600 | 2750 | 10.6 |  | 20 |  |  | 
3 | Cc1oc(-c2ccccc2)nc1CCOc1ccc(CC2SC(=O)NC2=O)cc1 (stereo unspecified) | 4090 | 771 | 0.014 | 8 |  |  |  | 
4 | CN(CCOc1ccc(CC2SC(=O)NC2=O)cc1)c1ccccn1 (stereo unspecified) |  |  |  |  |  | 20 |  | 
5 | CC(C)(Oc1ccc(C(=O)c2ccc(Cl)cc2)cc1)C(=O)O [FENOFIBRIC ACID] | 68000 |  |  |  | < 20 | < 20 | Not Active | 
6 | Cc1oc(-c2ccccc2)nc1CCOc1ccc(OC(C)C(=O)O)cc1 (stereo unspecified) | 2030 | 625 | 3.12 | 2750 |  |  |  | 
7 | Cc1oc(-c2ccccc2)nc1CCOc1ccc(OC(C)(C)C(=O)O)cc1 | 1440 | 717 | 3.02 | 2060 |  |  |  | 
8 | Cc1oc(-c2ccc(-c3ccccc3)cc2)nc1CCOc1ccc(OC(C)(C)C(=O)O)cc1 | 174 | 149 | 0.548 | 882 |  |  |  | 
9 | Cc1c(C)c2c(c(C)c1O)CCC(C)(COc1ccc(CC3SC(=O)NC3=O)cc1)O2 (stereo unspecified) [TROGLITAZONE] |  |  |  |  |  | < 20 |  | Not Active
